Series [1] concerns 6 Hz psychomotor seizures. In words: 6 Hz (32 mA) psychomotor seizure test. In kind it is in vivo, mice. The note with it: Mus musculus, 32 mA; for responders at 100 mg/kg: mice, ip, 0.5 h, read-out: 6 Hz: number of mice protected/number of mice tested (converted). The text has this: Psychomotor seizures were induced via corneal stimulation (6 Hz, 32 mA, 0.2 ms rectangular pulse width, 3 s duration) using a constant-current device (ECT Unit 57800, Ugo Basile, Italy). A drop of 1% solution of lidocaine hydrochloride was applied to the mouse corneas before stimulation to provide local anesthesia and ensure optimal current conductivity. After the electrical stimulation, mice were gently released and observed for the presence or absence of seizure activity, being characterized by immobility associated with rearing, forelimb clonus, twitching of the vibrissae, stun, and Straub-tail. Lack of the above symptoms or their cessation within 10 s from the stimulation was considered as absence of seizure activity. The initial anticonvulsant screening of the tested compounds was performed at a fixed dose of 100 mg/kg (four mice per group). Then ED50 was calculated for active compounds as described above.

In series [2] the test system is maximal electroshock seizures. The experiment in a line: Maximal electroshock seizure (MES) test. In kind it is in vivo, mice. The conditions noted are these: Mus musculus; mice, ip, 100 mg/kg, 0.5 h; read-out: MES: number of mice protected/number of mice tested (converted). As to the method: The MES test was performed as previously described. Stimuli (25 mA, 0.2 s, 50 Hz) were generated by a constant current stimulator (Rodent shocker, Type 221, Hugo Sachs Elektronik, Germany) and delivered with the use of auricular electrodes. During the stimulation, each mouse was restrained manually, and immediately after the stimulation gently released for observation. The endpoint was the tonic extension of the hind limbs. Mice not displaying hindlimb tonic extension were considered to be protected from seizure. The initial anticonvulsant screening of the tested compounds was performed at a fixed dose of 100 mg/kg (four mice per group). […] To evaluate the ED50, at least three groups of animals were injected with various doses of tested compounds. Each group consisted of six animals.
A general note: In the maximal electroshock model the usual endpoint is tonic extension of the hind limbs.

The subject of series [3] is motor impairment on rotarod. In words: Rotarod test (acute neurotoxicity, NT). In kind it is in vivo. The note with it: ip, 100 mg/kg, 0.5 h. As to the method: In this test mice were trained to balance on an accelerating rotarod that rotated at 10 rotations per minute (Rotarod apparatus, May Commat RR0711, Turkey; rod diameter: 3 cm). During the training session, the animals were placed on a rotating rod for 3 min with an unlimited number of trials. Proper experiment was conducted 24 h after the training trial. On the test day, trained mice were intraperitoneally pretreated with the test compound at a dose of 100 mg/kg and just before the MES test were tested on the rotarod. Neurotoxicity was indicated by the inability of the animal to maintain equilibration on the rod for 1 min. […] Each group consisted of six animals.
(The rotarod test checks motor coordination on a turning rod.)

Series [4] concerns PTZ-induced clonic seizures. In words: Subcutaneous pentylenetetrazole (scPTZ) seizure test. The note with it: mice, 100 mg/kg. In kind it is in vivo. As to the method: Clonic convulsions were induced by the subcutaneous (sc) administration of PTZ at a dose of 100 mg/kg. After PTZ injection, the mice were placed separately and observed during the next 30 min for the occurrence of clonic seizures. Clonic seizures were defined as clonus of the whole body lasting more than 3 s, with an accompanying loss of righting reflex. The latency to first clonus, the number of seizure episodes, and mortality rate were noted and compared with vehicle-treated and drug-treated groups. The absence of clonic convulsions within the observed time period was interpreted as the compound’s ability to protect against PTZ-induced seizures.

For series [5], the system named is latency time to pain reaction. The experiment in a line: Hot plate test. Type of series: in vivo. The conditions noted are these: mice, 5 mg/kg, p < 0.001. How it is done:
The hot plate test was carried out based on the Eddy and Leimbach (1953) method. In this test, the apparatus was equipped with an electrically heated surface with a temperature controller that maintains surface temperature to a set point. Herein, the temperature was set at 55 °C. The animals were treated ip either with the test compounds, or vehicle 30 min before placing the animal on a hot plate apparatus. Latency time to pain reaction, i.e., the time until the animal licked its back paws or jumped was recorded by means of the stopwatch.
A general note: Thermal pain tests record how soon the animal reacts.

Where a name gives a salt, the structure may show the parent alone.

`Cc1ccsc1C1CC(=O)N(CCCN2CCN(c3ccc(F)cc3)CC2)C1=O` (racemic) (as salt: hydrochloride) [Compound 5, (R,S)-1-(3-(4-(4-Fluorophenyl)piperazin-1-yl)propyl)-3-(3-methylthiophen-2-yl)pyrrolidine-2,5-dione hydrochloride] registered a melting point of 160 to 162 °C.

In turn, `Cc1ccsc1C1CC(=O)N(CCCN2CCN(c3cccc(C(F)(F)F)c3)CC2)C1=O` (racemic) (as salt: hydrochloride) [Compound 6, (R,S)-3-(3-Methylthiophen-2-yl)-1-(3-(4-(3-(trifluoromethyl)phenyl)piperazin-1-yl)propyl)pyrrolidine-2,5-dione hydrochloride] returned a melting point of 183 to 185 °C.

Take `Cc1ccsc1C1CC(=O)N(CCCN2CCN(c3cccc(Cl)c3)CC2)C1=O` (racemic) (as salt: hydrochloride) [Compound 7, (R,S)-1-(3-(4-(3-Chlorophenyl)piperazin-1-yl)propyl)-3-(3-methylthiophen-2-yl)pyrrolidine-2,5-dione hydrochloride]: the melting point was in the range of 181.5 to 183.5 °C.

Turning to `Cc1ccsc1C1CC(=O)N(CCCN2CCN(c3ccc(Cl)cc3)CC2)C1=O` (racemic) (as salt: hydrochloride) [Compound 8, (R,S)-1-(3-(4-(4-Chlorophenyl)piperazin-1-yl)propyl)-3-(3-methylthiophen-2-yl)pyrrolidine-2,5-dione hydrochloride], the melting point was 68 to 70 °C.

With `Cc1ccsc1C1CC(=O)N(CCCN2CCN(c3ccc(Cl)c(Cl)c3)CC2)C1=O` (racemic) (as salt: hydrochloride) [Compound 9, (R,S)-1-(3-(4-(3,4-Dichlorophenyl)piperazin-1-yl)propyl)-3-(3-methylthiophen-2-yl)pyrrolidine-2,5-dione hydrochloride], the melting point is 101 to 103 °C.

For `Cc1ccsc1C1CC(=O)N(CCCN2CCN(c3ccc(F)cc3)CC2)C1=O` (racemic) [Compound 5, (R,S)-1-(3-(4-(4-Fluorophenyl)piperazin-1-yl)propyl)-3-(3-methylthiophen-2-yl)pyrrolidine-2,5-dione hydrochloride], the responders at 100 mg/kg in series [1] and in series [2] was 0% throughout. The “NT: number of mice with motor impairment/number of mice tested” value in series [3] is 4/4.

As for `Cc1ccsc1C1CC(=O)N(CCCN2CCN(c3cccc(Cl)c3)CC2)C1=O` (racemic) [Compound 7, (R,S)-1-(3-(4-(3-Chlorophenyl)piperazin-1-yl)propyl)-3-(3-methylthiophen-2-yl)pyrrolidine-2,5-dione hydrochloride], the responders at 100 mg/kg in series [1] and in series [2] was 0% throughout. In addition, the “NT: number of mice with motor impairment/number of mice tested” value in series [3] is on record as 2/4.

With `Cc1ccsc1C1CC(=O)N(CCCN2CCN(c3ccc(Cl)cc3)CC2)C1=O` (racemic) [Compound 8, (R,S)-1-(3-(4-(4-Chlorophenyl)piperazin-1-yl)propyl)-3-(3-methylthiophen-2-yl)pyrrolidine-2,5-dione hydrochloride], the responders at 100 mg/kg in series [1] and in series [2] was 25% throughout. Besides, in series [3], the “NT: number of mice with motor impairment/number of mice tested” value was 0/4.

The molecule `Cc1ccsc1C1CC(=O)N(CC(=O)N2CCOCC2)C1=O` (racemic) [Compound 10, (R,S)-3-(3-Methylthiophen-2-yl)-1-(2-morpholino-2-oxoethyl)pyrrolidine-2,5-dione] yielded a melting point of 142 to 144 °C. In series [1], the responders at 100 mg/kg was 25%. Besides, in series [2], the responders at 100 mg/kg is 0%. In addition, the “NT: number of mice with motor impairment/number of mice tested” value in series [3] is reported as 0/4.

Molecule `Cc1ccsc1C1CC(=O)N(CC(=O)N2CCN(c3ccc(F)cc3)CC2)C1=O` (racemic) [Compound 11, (R,S)-1-(2-(4-(4-Fluorophenyl)piperazin-1-yl)-2-oxoethyl)-3-(3-methylthiophen-2-yl)pyrrolidine-2,5-dione] showed a melting point of 165 to 166 °C. Also, the responders at 100 mg/kg in series [1] was 0%. Moreover, the responders at 100 mg/kg in series [2] was 0%. Further, the “NT: number of mice with motor impairment/number of mice tested” value in series [3] is recorded as 0/4.

As for `Cc1ccsc1C1CC(=O)N(CC(=O)N2CCN(c3cccc(C(F)(F)F)c3)CC2)C1=O` (racemic) [Compound 12, (R,S)-3-(3-Methylthiophen-2-yl)-1-(2-oxo-2-(4-(3-(trifluoromethyl)phenyl)piperazin-1-yl)ethyl)pyrrolidine-2,5-dione], the melting point is 135 to 137 °C. Further, the responders at 100 mg/kg in series [1] is 0%. The responders at 100 mg/kg in series [2] was 0%. In addition, in series [3], the “NT: number of mice with motor impairment/number of mice tested” value is listed as 1/4.

`Cc1ccsc1C1CC(=O)N(CC(=O)N2CCN(c3ccccc3Cl)CC2)C1=O` (racemic) [Compound 13, (R,S)-1-(2-(4-(2-Chlorophenyl)piperazin-1-yl)-2-oxoethyl)-3-(3-methylthiophen-2-yl)pyrrolidine-2,5-dione] displayed a melting point of 141 to 143 °C. The responders at 100 mg/kg in series [1] was 25%. For the same molecule, the responders at 100 mg/kg in series [2] is 0%. Besides, the “NT: number of mice with motor impairment/number of mice tested” value in series [3] was 0/4.

Take `Cc1ccsc1C1CC(=O)N(CC(=O)N2CCN(c3ccc(Cl)cc3)CC2)C1=O` (racemic) [Compound 15, (R,S)-1-(2-(4-(4-Chlorophenyl)piperazin-1-yl)-2-oxoethyl)-3-(3-methylthiophen-2-yl)pyrrolidine-2,5-dione]: the melting point fell in the range of 179 to 181 °C. The responders at 100 mg/kg in series [1] was 25%. The responders at 100 mg/kg in series [2] is 0%. Also, in series [3], the “NT: number of mice with motor impairment/number of mice tested” value was 0/4.

`Cc1ccsc1C1CC(=O)N(CC(=O)N2CCN(c3cccc(Cl)c3Cl)CC2)C1=O` (racemic) [Compound 16, (R,S)-1-(2-(4-(2,3-Dichlorophenyl)piperazin-1-yl)-2-oxoethyl)-3-(3-methylthiophen-2-yl)pyrrolidine-2,5-dione]: the melting point was in the range of 112 to 113.5 °C. Also, the responders at 100 mg/kg in series [1] was 0%. For the same molecule, the responders at 100 mg/kg in series [2] is 0%. Further, in series [3], the “NT: number of mice with motor impairment/number of mice tested” value is 0/4.

Turning to `Cc1ccsc1C1CC(=O)N(CC(=O)N2CCN(c3ccc(Cl)c(Cl)c3)CC2)C1=O` (racemic) [Compound 17, (R,S)-1-(2-(4-(3,4-Dichlorophenyl)piperazin-1-yl)-2-oxoethyl)-3-(3-methylthiophen-2-yl)pyrrolidine-2,5-dione], the ED50 in series [1] (mice ip, 95% confidence limit in brackets) is above 150 mg/kg. Moreover, the responders at 100 mg/kg in series [1] is 50%; in series [2] it was 0%. The “scPTZ: effect in words” value in series [4] is “no significant effect”. Besides, in series [3], the “NT: number of mice with motor impairment/number of mice tested” value is given as 0/4.

As to `CN1CC[C@]23c4c5ccc(O)c4O[C@H]2[C@@H](O)C=C[C@H]3[C@H]1C5` [morphine, reference compound], in series [5], the “Hot plate: prolongation of latency time to pain reaction” value was found to be 74%.

One may read the melting point as the temperature of the solid-liquid transition. As usually defined, the ED50 is the dose that gives a 50% effect, or the effect in half of the subjects.

(Values after article PMC7461116, “Synthesis, Anticonvulsant and Antinociceptive Activity of New Hybrid Compounds: Derivatives of 3-(3-Methylthiophen-2-yl)-pyrrolidine-2,5-dione” (International Journal of Molecular Sciences, 2020).)
